19 molecules from ChEMBL document CHEMBL4387751, “Development of substituted pyrido[3,2-d]pyrimidines as potent and selective dihydrofolate reductase inhibitors for pneumocystis pneumonia infection” (Bioorg Med Chem Lett, 2019) can be followed below.

What is called IC50 is the midpoint of a concentration-inhibition curve.

The structures appear in SMILES notation.

Data set [1] in a line: Inhibition of Pneumocystis jirovecii DHFR expressed in Escherichia coli Rosetta-gami B (DE3) assessed as reduction in consumption of NADPH using 18 uM DHFA as substrate.
The subject of data set [2] is DHFR (human versus Pneumocystis jirovecii). Description: Selectivity ratio of IC50 for inhibition of recombinant human DHFR using 18 uM DHFA as substrate to IC50 for inhibition of Pneumocystis jirovecii DHFR using 18 uM DHFA as substrate. In kind it is toxicity. The conditions noted are these: recombinant human DHFR and Pneumocystis jirovecii DHFR, probe DHFA (substrate), read-out: Ratio IC50.

Data set [3] shares this test system. Description: Selectivity ratio of IC50 for inhibition of recombinant human DHFR using 9 uM DHFA as substrate to IC50 for inhibition of Pneumocystis jirovecii DHFR using 9 uM DHFA as substrate. In kind it is toxicity. As to conditions: recombinant human DHFR and Pneumocystis jirovecii DHFR, probe DHFA (substrate), read-out: Ratio IC50.
Data set [4] in a line: Inhibition of Pneumocystis jirovecii DHFR expressed in Escherichia coli Rosetta-gami B (DE3) assessed as reduction in consumption of NADPH using 9 uM DHFA as substrate.
For data set [5], the target named is T1, Dihydrofolate reductase (Homo sapiens, UniProt P00374).
T1 sequence (P00374 whole entry): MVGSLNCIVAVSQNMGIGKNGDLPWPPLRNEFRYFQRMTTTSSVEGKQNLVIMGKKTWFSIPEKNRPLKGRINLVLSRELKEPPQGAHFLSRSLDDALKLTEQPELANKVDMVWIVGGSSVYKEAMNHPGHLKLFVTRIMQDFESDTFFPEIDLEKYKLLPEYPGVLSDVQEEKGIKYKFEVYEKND
Nature of the data set: Inhibition of recombinant human DHFR assessed as reduction in consumption of NADPH using 9 uM DHFA as substrate.

The nature of data set [6]: Inhibition of Pneumocystis carinii DHFR expressed in Escherichia coli Rosetta-gami B (DE3) assessed as reduction in consumption of NADPH using DHFA as substrate.
Data set [7] deals with T2, Dihydrofolate reductase (Rattus norvegicus, UniProt Q920D2).
T2 sequence (Q920D2 whole entry): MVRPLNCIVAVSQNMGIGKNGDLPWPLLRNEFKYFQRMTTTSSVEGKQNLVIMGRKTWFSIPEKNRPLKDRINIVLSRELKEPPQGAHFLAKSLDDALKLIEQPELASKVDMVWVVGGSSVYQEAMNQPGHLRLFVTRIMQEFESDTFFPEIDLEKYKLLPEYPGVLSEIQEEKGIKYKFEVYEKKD
Nature of the data set: Inhibition of rat liver DHFR assessed as reduction in consumption of NADPH using DHFA as substrate.

With `Nc1nc(N)c2cc(Nc3cc(F)c(F)c(F)c3)cnc2n1`, the IC50 in data set [1] amounted to 870 nM. In addition, the selectivity ratio in data set [2] was 4.
As to `COc1cc(NCc2ccc3nc(N)nc(N)c3c2C)cc(OC)c1OC` [TRIMETREXATE], in data set [1], the IC50 turned out to be 2.1 nM.
On to `Nc1nc(N)c2nc(Nc3ccccc3)ccc2n1`, for which the selectivity ratio in data set [3] was determined as 13. In addition, the figures for the IC50 in data set [4] and in data set [5] were 122 nM and 1530 nM, respectively.
In the case of `CCCCN(c1ccccc1)c1ccc2nc(N)nc(N)c2n1`, in data set [4], the IC50 is 66 nM.
Turning to `Cc1ccc(Nc2cnc3nc(N)nc(N)c3c2)cc1`, the IC50 in data set [1] was found to be 620 nM. Besides, the selectivity ratio in data set [2] came out at 3.
As to `Nc1nc(N)c2cc(Nc3ccc4ccccc4c3)cnc2n1`, in data set [1], the IC50 turned out to be 400 nM. Besides, in data set [2], the selectivity ratio was 5.
Consider `COc1ccc(OC)c(NCc2ccc3nc(N)nc(N)c3n2)c1`, for which the half-maximal inhibitory concentration (IC50) in data set [6] came to 1400 nM.
Regarding `COc1ccc(Nc2cnc3nc(N)nc(N)c3c2)cc1`, in data set [1], the IC50 amounted to 400 nM.
For `Nc1nc(N)c2nc(Nc3cc(F)c(F)c(F)c3)ccc2n1`, in data set [3], the selectivity ratio was determined as 12. Also, in data set [4], the IC50 amounted to 155 nM.
As for `COc1ccc(OC)c(NCc2cnc3nc(N)nc(N)c3c2)c1`, the IC50 in data set [7] came to 500 nM.
In the case of `CCN(c1ccccc1)c1ccc2nc(N)nc(N)c2n1`, in data set [4], the IC50 was determined as 150 nM.
For `Cc1ccc(Nc2ccc3nc(N)nc(N)c3n2)cc1`, the selectivity ratio in data set [3] turned out to be 15. Also, the IC50 in data set [4] came out at 174 nM; in data set [5], 2630 nM.
Consider `COc1ccc(Nc2ccc3nc(N)nc(N)c3n2)cc1`, for which the IC50 in data set [4] worked out at 239 nM; in data set [5], 2460 nM.
Regarding `Nc1nc(N)c2nc(Nc3ccc(O)cc3)ccc2n1`, the selectivity ratio in data set [3] was 10. Moreover, the IC50 came out at 150 nM in data set [4] and 1580 nM in data set [5].
In the case of `Nc1nc(N)c2nc(Nc3ccc(F)c(F)c3)ccc2n1`, the selectivity ratio in data set [3] was determined as 28. Moreover, the IC50 came out at 80 nM in data set [4] and 2250 nM in data set [5].
Consider `Nc1nc(N)c2nc(Nc3ccc4ccccc4c3)ccc2n1`, for which the selectivity ratio in data set [3] is 12. Further, the figures for the IC50 in data set [4] and in data set [5] were 275 nM and 3180 nM, respectively.
In the case of `Nc1nc(N)c2cc(Nc3ccccc3)cnc2n1`, the IC50 in data set [1] is 300 nM. Further, the selectivity ratio in data set [2] was less than 1.
In the case of `Nc1nc(N)c2cc(Nc3cccc4ccccc34)cnc2n1`, in data set [1], the IC50 was 250 nM. Besides, the selectivity ratio in data set [2] was 8.
For the molecule `Nc1nc(N)c2nc(Nc3cccc4ccccc34)ccc2n1`, the selectivity ratio in data set [3] is 10. Also, the figures for the IC50 in data set [4] and in data set [5] were 112 nM and 1100 nM, respectively.
